Results as given in BigSolDB 2.1.

CC(C)C(=O)OCC(=O)[C@@]12O[C@H](C3CCCCC3)O[C@@H]1C[C@H]1[C@@H]3CCC4=CC(=O)C=C[C@]4(C)[C@H]3[C@@H](O)C[C@@]12C showed a solubility (mole fraction) (in acetonitrile, 278.15 K) of 0.00485, a solubility (mole fraction) (in acetonitrile, 280.65 K) of 0.00528 and a solubility (mole fraction) (in acetonitrile, 283.15 K) of 0.00576. The solubility (mole fraction) (in acetonitrile, 285.65 K) was 0.00626, the solubility (mole fraction) (in acetonitrile, 288.15 K) was 0.00687 and the solubility (mole fraction) (in acetonitrile, 290.65 K) was 0.00739. It also gave a solubility (mole fraction) (in acetonitrile, 293.15 K) of 0.008, a solubility (mole fraction) (in acetonitrile, 295.65 K) of 0.00865 and a solubility (mole fraction) (in acetonitrile, 298.15 K) of 0.00937. It also gave a solubility (mole fraction) (in acetonitrile, 300.65 K) of 0.0101, a solubility (mole fraction) (in acetonitrile, 303.15 K) of 0.0109 and a solubility (mole fraction) (in acetonitrile, 305.65 K) of 0.0117. The solubility (mole fraction) (in acetonitrile, 308.15 K) was 0.0126, the solubility (mole fraction) (in acetonitrile, 310.65 K) was 0.0135 and the solubility (mole fraction) (in acetonitrile, 313.15 K) was 0.0143. For the same compound, the solubility (mole fraction) (in ethanol, 278.15 K) was 0.00231, the solubility (mole fraction) (in ethanol, 280.65 K) was 0.00276 and the solubility (mole fraction) (in ethanol, 283.15 K) was 0.00333. For the same compound, the solubility (mole fraction) (in ethanol, 285.65 K) was 0.00398, the solubility (mole fraction) (in ethanol, 288.15 K) was 0.00478 and the solubility (mole fraction) (in ethanol, 290.65 K) was 0.00568. It also gave a solubility (mole fraction) (in ethanol, 293.15 K) of 0.00674, a solubility (mole fraction) (in ethanol, 295.65 K) of 0.00796 and a solubility (mole fraction) (in ethanol, 298.15 K) of 0.00937. The solubility (mole fraction) (in ethanol, 300.65 K) was 0.011, the solubility (mole fraction) (in ethanol, 303.15 K) was 0.0129 and the solubility (mole fraction) (in ethanol, 305.65 K) was 0.0151. It also gave a solubility (mole fraction) (in ethanol, 308.15 K) of 0.0176, a solubility (mole fraction) (in ethanol, 310.65 K) of 0.0204 and a solubility (mole fraction) (in ethanol, 313.15 K) of 0.0237. For the same compound, the solubility (mole fraction) (in ethyl acetate, 278.15 K) was 0.0515, the solubility (mole fraction) (in ethyl acetate, 280.65 K) was 0.0559 and the solubility (mole fraction) (in ethyl acetate, 283.15 K) was 0.0604. It also gave a solubility (mole fraction) (in ethyl acetate, 285.65 K) of 0.0653, a solubility (mole fraction) (in ethyl acetate, 288.15 K) of 0.0704 and a solubility (mole fraction) (in ethyl acetate, 290.65 K) of 0.076. For the same compound, the solubility (mole fraction) (in ethyl acetate, 293.15 K) was 0.0818, the solubility (mole fraction) (in ethyl acetate, 295.65 K) was 0.088 and the solubility (mole fraction) (in ethyl acetate, 298.15 K) was 0.0945. The solubility (mole fraction) (in ethyl acetate, 300.65 K) was 0.101, the solubility (mole fraction) (in ethyl acetate, 303.15 K) was 0.109 and the solubility (mole fraction) (in ethyl acetate, 305.65 K) was 0.116. For the same compound, the solubility (mole fraction) (in ethyl acetate, 308.15 K) was 0.124, the solubility (mole fraction) (in ethyl acetate, 310.65 K) was 0.133 and the solubility (mole fraction) (in ethyl acetate, 313.15 K) was 0.141. It also gave a solubility (mole fraction) (in isopropanol, 278.15 K) of 0.00814, a solubility (mole fraction) (in isopropanol, 280.65 K) of 0.00948 and a solubility (mole fraction) (in isopropanol, 283.15 K) of 0.0111. It also gave a solubility (mole fraction) (in isopropanol, 285.65 K) of 0.013, a solubility (mole fraction) (in isopropanol, 288.15 K) of 0.0151 and a solubility (mole fraction) (in isopropanol, 290.65 K) of 0.0175. The solubility (mole fraction) (in isopropanol, 293.15 K) was 0.0203, the solubility (mole fraction) (in isopropanol, 295.65 K) was 0.0234 and the solubility (mole fraction) (in isopropanol, 298.15 K) was 0.0271. For the same compound, the solubility (mole fraction) (in isopropanol, 300.65 K) was 0.0312, the solubility (mole fraction) (in isopropanol, 303.15 K) was 0.0359 and the solubility (mole fraction) (in isopropanol, 305.65 K) was 0.0411. For the same compound, the solubility (mole fraction) (in isopropanol, 308.15 K) was 0.047, the solubility (mole fraction) (in isopropanol, 310.65 K) was 0.0536 and the solubility (mole fraction) (in isopropanol, 313.15 K) was 0.061. For the same compound, the solubility (mole fraction) (in n-butanol, 278.15 K) was 0.0669, the solubility (mole fraction) (in n-butanol, 280.65 K) was 0.0689 and the solubility (mole fraction) (in n-butanol, 283.15 K) was 0.0716. It also gave a solubility (mole fraction) (in n-butanol, 285.65 K) of 0.0743, a solubility (mole fraction) (in n-butanol, 288.15 K) of 0.0779 and a solubility (mole fraction) (in n-butanol, 290.65 K) of 0.0815. It also gave a solubility (mole fraction) (in n-butanol, 293.15 K) of 0.0852, a solubility (mole fraction) (in n-butanol, 295.65 K) of 0.0898 and a solubility (mole fraction) (in n-butanol, 298.15 K) of 0.0942. It also gave a solubility (mole fraction) (in n-butanol, 300.65 K) of 0.0993, a solubility (mole fraction) (in n-butanol, 303.15 K) of 0.105 and a solubility (mole fraction) (in n-butanol, 305.65 K) of 0.111. It also gave a solubility (mole fraction) (in n-butanol, 308.15 K) of 0.118, a solubility (mole fraction) (in n-butanol, 310.65 K) of 0.124 and a solubility (mole fraction) (in n-butanol, 313.15 K) of 0.131. The solubility (mole fraction) (in n-propanol, 278.15 K) was 0.0141, the solubility (mole fraction) (in n-propanol, 280.65 K) was 0.0164 and the solubility (mole fraction) (in n-propanol, 283.15 K) was 0.0191. The solubility (mole fraction) (in n-propanol, 285.65 K) was 0.0222, the solubility (mole fraction) (in n-propanol, 288.15 K) was 0.025 and the solubility (mole fraction) (in n-propanol, 290.65 K) was 0.029. For the same compound, the solubility (mole fraction) (in n-propanol, 293.15 K) was 0.0334, the solubility (mole fraction) (in n-propanol, 295.65 K) was 0.0385 and the solubility (mole fraction) (in n-propanol, 298.15 K) was 0.0437. It also gave a solubility (mole fraction) (in n-propanol, 300.65 K) of 0.05, a solubility (mole fraction) (in n-propanol, 303.15 K) of 0.0567 and a solubility (mole fraction) (in n-propanol, 305.65 K) of 0.0644. The solubility (mole fraction) (in n-propanol, 308.15 K) was 0.0728, the solubility (mole fraction) (in n-propanol, 310.65 K) was 0.0825 and the solubility (mole fraction) (in n-propanol, 313.15 K) was 0.0925. It also gave a solubility (mole fraction) (in toluene, 278.15 K) of 0.0297, a solubility (mole fraction) (in toluene, 280.65 K) of 0.0318 and a solubility (mole fraction) (in toluene, 283.15 K) of 0.0342. It also gave a solubility (mole fraction) (in toluene, 285.65 K) of 0.0367, a solubility (mole fraction) (in toluene, 288.15 K) of 0.0392 and a solubility (mole fraction) (in toluene, 290.65 K) of 0.0421. It also gave a solubility (mole fraction) (in toluene, 293.15 K) of 0.0449, a solubility (mole fraction) (in toluene, 295.65 K) of 0.0479 and a solubility (mole fraction) (in toluene, 298.15 K) of 0.0511. For the same compound, the solubility (mole fraction) (in toluene, 300.65 K) was 0.0544, the solubility (mole fraction) (in toluene, 303.15 K) was 0.0579 and the solubility (mole fraction) (in toluene, 305.65 K) was 0.0616. For the same compound, the solubility (mole fraction) (in toluene, 308.15 K) was 0.0654, the solubility (mole fraction) (in toluene, 310.65 K) was 0.0694 and the solubility (mole fraction) (in toluene, 313.15 K) was 0.0735.
